Source: the supplement of paper PMC4862054

What follows are molecules tested on MDA-MB-468 (assay: normalised viability (% of control), CellTiter-Blue; higher = more viable cells (about 100 = DMSO control)). Settings: 100 nM; incubation time: 72 h.
How it was run: (§1)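 Normalised viability is given for a single listed concentration of the series. In 384-well plates, breast cancer cell lines were incubated 72 h with compound, then read with CellTiter-Blue (2 h, 37 °C) at 560/590 nm. Per-plate scaling set vehicle to 100 and a positive kill control to 0, with Z'-factor quality control.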

Going from `CC(C)C[C@H](NC(=O)[C@H](Cc1ccccc1)NC(=O)c1cnccn1)B(O)O` [Bortezomib] to `Cn1cnc2c(F)c(Nc3ccc(Br)cc3F)c(C(=O)NOCCO)cc21` [MEK-162], the normalised viability rises from 3.55% to 99.5%.

Same assay, conditions: 1000 nM; incubation time: 72 h

First: O=c1[nH]c(=O)n([C@H]2C[C@H](O)[C@@H](CO)O2)cc1F [Floxuridine]
Second: Cn1cnc2c(F)c(Nc3ccc(Br)cc3F)c(C(=O)NOCCO)cc21 [MEK-162]
The normalised viability of the first is lower: 43.7% for the first, 75.2% for the second.

First: CC(C)C[C@H](NC(=O)[C@H](Cc1ccccc1)NC(=O)c1cnccn1)B(O)O [Bortezomib]
Second: O=C(c1ccc(OCCN2CCCCC2)cc1)c1c(-c2ccc(O)cc2)sc2cc(O)ccc12 [Raloxifene]
The normalised viability of the first is lower: 2.21% for the first, 106% for the second.

In the case of `COc1c(C)cnc(Cn2cnc3c(Cl)nc(N)nc32)c1C` [BIIB021], the normalised viability is reported as 43.2%.

Same assay, conditions: 10000 nM; incubation time: 72 h

Going from `O=c1[nH]c(=O)n([C@H]2C[C@H](O)[C@@H](CO)O2)cc1F` [Floxuridine] to `O=C(c1ccc(OCCN2CCCCC2)cc1)c1c(-c2ccc(O)cc2)sc2cc(O)ccc12` [Raloxifene], the normalised viability rises from 30.3% to 78.2%.

Molecule `COc1c(C)cnc(Cn2cnc3c(Cl)nc(N)nc32)c1C` [BIIB021] has a normalised viability of 21.3%.

The molecules below were run on SK-BR-3 in the same assay as above. Settings: 1 nM; incubation time: 72 h.
How it was run: as §1

Compared with `CC(C)C[C@H](NC(=O)[C@H](Cc1ccccc1)NC(=O)c1cnccn1)B(O)O` [Bortezomib], `Cn1cnc2c(F)c(Nc3ccc(Br)cc3F)c(C(=O)NOCCO)cc21` [MEK-162] is higher in normalised viability: 90.2% for the first, 111% for the second.

Same assay, conditions: 10 nM; incubation time: 72 h

Going from `O=c1[nH]c(=O)n([C@H]2C[C@H](O)[C@@H](CO)O2)cc1F` [Floxuridine] to `O=C(c1ccc(OCCN2CCCCC2)cc1)c1c(-c2ccc(O)cc2)sc2cc(O)ccc12` [Raloxifene], the normalised viability falls from 94.5% to 94%.

Molecule `COc1c(C)cnc(Cn2cnc3c(Cl)nc(N)nc32)c1C` [BIIB021] has a normalised viability of 85.7%.

Same assay, conditions: 100 nM; incubation time: 72 h

Compared with `CC(C)C[C@H](NC(=O)[C@H](Cc1ccccc1)NC(=O)c1cnccn1)B(O)O` [Bortezomib], `Cn1cnc2c(F)c(Nc3ccc(Br)cc3F)c(C(=O)NOCCO)cc21` [MEK-162] is higher in normalised viability: 17.5% for the first, 111% for the second.

Same assay, conditions: 1000 nM; incubation time: 72 h

Going from `O=c1[nH]c(=O)n([C@H]2C[C@H](O)[C@@H](CO)O2)cc1F` [Floxuridine] to `Cn1cnc2c(F)c(Nc3ccc(Br)cc3F)c(C(=O)NOCCO)cc21` [MEK-162], the normalised viability rises from 44.9% to 102%.

Compared with `CC(C)C[C@H](NC(=O)[C@H](Cc1ccccc1)NC(=O)c1cnccn1)B(O)O` [Bortezomib], `O=C(c1ccc(OCCN2CCCCC2)cc1)c1c(-c2ccc(O)cc2)sc2cc(O)ccc12` [Raloxifene] is higher in normalised viability: 15.6% for the first, 94.7% for the second.

Molecule `COc1c(C)cnc(Cn2cnc3c(Cl)nc(N)nc32)c1C` [BIIB021] has a normalised viability of 14.5%.

Same assay, conditions: 10000 nM; incubation time: 72 h

First: O=c1[nH]c(=O)n([C@H]2C[C@H](O)[C@@H](CO)O2)cc1F [Floxuridine]
Second: O=C(c1ccc(OCCN2CCCCC2)cc1)c1c(-c2ccc(O)cc2)sc2cc(O)ccc12 [Raloxifene]
The normalised viability of the first is lower: 24% for the first, 103% for the second.

Work on `COc1c(C)cnc(Cn2cnc3c(Cl)nc(N)nc32)c1C` [BIIB021] yielded a normalised viability of 12.8%.

These molecules were tested on HCC1599 in the same assay as above. Settings: 1 nM; incubation time: 72 h.
How it was run: as §1

First: CC(C)C[C@H](NC(=O)[C@H](Cc1ccccc1)NC(=O)c1cnccn1)B(O)O [Bortezomib]
Second: Cn1cnc2c(F)c(Nc3ccc(Br)cc3F)c(C(=O)NOCCO)cc21 [MEK-162]
The normalised viability of the first is higher: 130% for the first, 90.5% for the second.

Same assay, conditions: 10 nM; incubation time: 72 h

Compared with `O=c1[nH]c(=O)n([C@H]2C[C@H](O)[C@@H](CO)O2)cc1F` [Floxuridine], `O=C(c1ccc(OCCN2CCCCC2)cc1)c1c(-c2ccc(O)cc2)sc2cc(O)ccc12` [Raloxifene] is higher in normalised viability: 86.9% for the first, 95.7% for the second.

Work on `COc1c(C)cnc(Cn2cnc3c(Cl)nc(N)nc32)c1C` [BIIB021] yielded a normalised viability of 102%.

Same assay, conditions: 100 nM; incubation time: 72 h

Compared with `CC(C)C[C@H](NC(=O)[C@H](Cc1ccccc1)NC(=O)c1cnccn1)B(O)O` [Bortezomib], `Cn1cnc2c(F)c(Nc3ccc(Br)cc3F)c(C(=O)NOCCO)cc21` [MEK-162] is higher in normalised viability: 64.5% for the first, 88.4% for the second.

Same assay, conditions: 1000 nM; incubation time: 72 h

Compared with `O=c1[nH]c(=O)n([C@H]2C[C@H](O)[C@@H](CO)O2)cc1F` [Floxuridine], `Cn1cnc2c(F)c(Nc3ccc(Br)cc3F)c(C(=O)NOCCO)cc21` [MEK-162] is lower in normalised viability: 91.8% for the first, 76.5% for the second.

First: CC(C)C[C@H](NC(=O)[C@H](Cc1ccccc1)NC(=O)c1cnccn1)B(O)O [Bortezomib]
Second: O=C(c1ccc(OCCN2CCCCC2)cc1)c1c(-c2ccc(O)cc2)sc2cc(O)ccc12 [Raloxifene]
The normalised viability of the first is lower: 45.2% for the first, 103% for the second.

`COc1c(C)cnc(Cn2cnc3c(Cl)nc(N)nc32)c1C` [BIIB021] was tested, and the normalised viability was 58.8%.

Same assay, conditions: 10000 nM; incubation time: 72 h

Going from `O=c1[nH]c(=O)n([C@H]2C[C@H](O)[C@@H](CO)O2)cc1F` [Floxuridine] to `O=C(c1ccc(OCCN2CCCCC2)cc1)c1c(-c2ccc(O)cc2)sc2cc(O)ccc12` [Raloxifene], the normalised viability rises from 81.9% to 102%.

`COc1c(C)cnc(Cn2cnc3c(Cl)nc(N)nc32)c1C` [BIIB021] gave a normalised viability of 40.7%.

The molecules below were run on HCC1143 in the same assay as above. Settings: 1 nM; incubation time: 72 h.
How it was run: as §1

First: CC(C)C[C@H](NC(=O)[C@H](Cc1ccccc1)NC(=O)c1cnccn1)B(O)O [Bortezomib]
Second: Cn1cnc2c(F)c(Nc3ccc(Br)cc3F)c(C(=O)NOCCO)cc21 [MEK-162]
The normalised viability of the first is lower: 81% for the first, 100% for the second.

Same assay, conditions: 10 nM; incubation time: 72 h

First: O=c1[nH]c(=O)n([C@H]2C[C@H](O)[C@@H](CO)O2)cc1F [Floxuridine]
Second: O=C(c1ccc(OCCN2CCCCC2)cc1)c1c(-c2ccc(O)cc2)sc2cc(O)ccc12 [Raloxifene]
The normalised viability of the first is lower: 97.5% for the first, 114% for the second.

With `COc1c(C)cnc(Cn2cnc3c(Cl)nc(N)nc32)c1C` [BIIB021] the normalised viability was 80.8%.

Same assay, conditions: 100 nM; incubation time: 72 h

Going from `CC(C)C[C@H](NC(=O)[C@H](Cc1ccccc1)NC(=O)c1cnccn1)B(O)O` [Bortezomib] to `Cn1cnc2c(F)c(Nc3ccc(Br)cc3F)c(C(=O)NOCCO)cc21` [MEK-162], the normalised viability rises from 19.4% to 70.7%.

Same assay, conditions: 1000 nM; incubation time: 72 h

Going from `O=c1[nH]c(=O)n([C@H]2C[C@H](O)[C@@H](CO)O2)cc1F` [Floxuridine] to `Cn1cnc2c(F)c(Nc3ccc(Br)cc3F)c(C(=O)NOCCO)cc21` [MEK-162], the normalised viability falls from 91.1% to 61.8%.

First: CC(C)C[C@H](NC(=O)[C@H](Cc1ccccc1)NC(=O)c1cnccn1)B(O)O [Bortezomib]
Second: O=C(c1ccc(OCCN2CCCCC2)cc1)c1c(-c2ccc(O)cc2)sc2cc(O)ccc12 [Raloxifene]
The normalised viability of the first is lower: 17.4% for the first, 98.7% for the second.

For `COc1c(C)cnc(Cn2cnc3c(Cl)nc(N)nc32)c1C` [BIIB021], the normalised viability was 32.1%.

Same assay, conditions: 10000 nM; incubation time: 72 h

Compared with `O=c1[nH]c(=O)n([C@H]2C[C@H](O)[C@@H](CO)O2)cc1F` [Floxuridine], `O=C(c1ccc(OCCN2CCCCC2)cc1)c1c(-c2ccc(O)cc2)sc2cc(O)ccc12` [Raloxifene] is higher in normalised viability: 61.6% for the first, 96.8% for the second.

Molecule `COc1c(C)cnc(Cn2cnc3c(Cl)nc(N)nc32)c1C` [BIIB021] has a normalised viability of 30.6%.

These molecules were tested on CAL-148 in the same assay as above. Settings: 0.3 nM; incubation time: 72 h.
How it was run: as §1

Going from `CC(C)C[C@H](NC(=O)[C@H](Cc1ccccc1)NC(=O)c1cnccn1)B(O)O` [Bortezomib] to `Cn1cnc2c(F)c(Nc3ccc(Br)cc3F)c(C(=O)NOCCO)cc21` [MEK-162], the normalised viability falls from 99.6% to 94%.

Same assay, conditions: 3 nM; incubation time: 72 h

First: O=c1[nH]c(=O)n([C@H]2C[C@H](O)[C@@H](CO)O2)cc1F [Floxuridine]
Second: Cn1cnc2c(F)c(Nc3ccc(Br)cc3F)c(C(=O)NOCCO)cc21 [MEK-162]
The normalised viability of the first is higher: 97.6% for the first, 91% for the second.

Going from `CC(C)C[C@H](NC(=O)[C@H](Cc1ccccc1)NC(=O)c1cnccn1)B(O)O` [Bortezomib] to `O=C(c1ccc(OCCN2CCCCC2)cc1)c1c(-c2ccc(O)cc2)sc2cc(O)ccc12` [Raloxifene], the normalised viability rises from 89% to 95.2%.

`COc1c(C)cnc(Cn2cnc3c(Cl)nc(N)nc32)c1C` [BIIB021] gave a normalised viability of 87%.

Same assay, conditions: 10 nM; incubation time: 72 h

Going from `CC(C)C[C@H](NC(=O)[C@H](Cc1ccccc1)NC(=O)c1cnccn1)B(O)O` [Bortezomib] to `Cn1cnc2c(F)c(Nc3ccc(Br)cc3F)c(C(=O)NOCCO)cc21` [MEK-162], the normalised viability rises from 94.4% to 97.2%.

Same assay, conditions: 30 nM; incubation time: 72 h

First: O=c1[nH]c(=O)n([C@H]2C[C@H](O)[C@@H](CO)O2)cc1F [Floxuridine]
Second: O=C(c1ccc(OCCN2CCCCC2)cc1)c1c(-c2ccc(O)cc2)sc2cc(O)ccc12 [Raloxifene]
The normalised viability of the first is lower: 54.4% for the first, 98.6% for the second.

In the case of `COc1c(C)cnc(Cn2cnc3c(Cl)nc(N)nc32)c1C` [BIIB021], the normalised viability is reported as 88.6%.

Same assay, conditions: 100 nM; incubation time: 72 h

Compared with `O=c1[nH]c(=O)n([C@H]2C[C@H](O)[C@@H](CO)O2)cc1F` [Floxuridine], `O=C(c1ccc(OCCN2CCCCC2)cc1)c1c(-c2ccc(O)cc2)sc2cc(O)ccc12` [Raloxifene] is higher in normalised viability: 52.8% for the first, 93.8% for the second.

For `COc1c(C)cnc(Cn2cnc3c(Cl)nc(N)nc32)c1C` [BIIB021], the normalised viability was 72.3%.
